Data taken from patent publication US20040019118A1, “NMDA receptor antagonists and their use in inhibiting abnormal hyperphosphorylation of microtubule associated protein tau” (priority 2002, published 2004).
“Also recorded” adds a separate entry of the source.

What was measured:
[1] = test system: cdk5; assay: cdk5 activity in extracts of treated hippocampal slice cultures; type: cell-based, rat
Method: (§1) Organotypic cultures of rat hippocampal slices were prepared from 20-30 day old Wistar rats and cultured with the interface method as described previously (Stoppini, et al. 1991; Bahr, et al. 1995; Zhongrin, et al. 2000). The rats were anesthetized with ketamine (100 mg/kg body weight) and decapitated and the hippocampi were dissected out and sliced into 400 um coronal sections by a McIllwain tissue chopper. Select slices with uninterrupted bright transparent neuronal layers were plated, 1-3 slices/filter, onto Millicell CM filters (Millipore, Bedford, Mass.). For the first 2 days in vitro (DIV) cultures were maintained in 25% horse serum, 50% Basal Media-Eagle (BEM), 25% Eagle's Balanced Salt Solution (EBSS), 25 mM HEPES, 1 mM glutamine, 28 mM glucose, pH 7.2, at 32° C. in a 5% CO2 humidified atmosphere. The slice cultures were then switched to 25% horse serum, 50% BEM and EBSS modified so that the potassium concentration was 2.66 mM, for another 5 DIV. After 7 DIV, the cultures were maintained in physiological potassium containing 5% horse serum medium at 35° C. for at least 20 days before any treatment was applied. When the slices were treated, the reagents were applied into the culture medium. […]

[2] = test system: tau; assay: Tau phosphorylation by radioimmuno-dot-blots and 125I-Western blots of slice homogenates; type: cell-based, rat
Method: (§2) The rats were anesthetized with ketamine (100 mg/kg body weight) and decapitated and the hippocampi were dissected out and sliced into 400 um coronal sections by a McIllwain tissue chopper. Select slices with uninterrupted bright transparent neuronal layers were plated, 1-3 slices/filter, onto Millicell CM filters (Millipore, Bedford, Mass.). […] After 7 DIV, the cultures were maintained in physiological potassium containing 5% horse serum medium at 35° C. for at least 20 days before any treatment was applied. When the slices were treated, the reagents were applied into the culture medium. At different time points, the slices collected with a brush were washed twice in homogenizing buffer (50 mM HEPES, pH 7.0, 10 mM β-merceptoethanol [BME], 1 mM EDTA, 1 mM EGTA, 0.1 mM phenylmethyl sulfonyl fluoride [PMSF], 2.0 mM benzamidine and 2.0 μg/ml each of aprotinin, leupeptin and pepstatin) and homogenized at 4° C. using a Teflon-glass homogenizer. The homogenate was then divided into two parts, one was centrifuged at 16000×g for 15 min and the supernatant was used to assay activities of PP-2A and PP-1. The rest of the homogenate was diluted 1:1 with a phosphatase inhibitor cocktail (20 mM β-glycerophosphate, 2 mM Na3VO4 and 100 mM NaF, pH 7.0) and either used for Western blots or centrifuged at 16000×g for 15 min and the resulting supernatant used to determine the kinase activities.
Triplicate samples of each homogenate were applied to nitrocellulose membrane (Schleicher and Schuell, Keene, N.H.) and dried at 37° C.

[3] = test system: MAP2; assay: Immunohistochemical staining of MAP2 in cultured hippocampal slices; type: cell-based, rat; conditions: 100 nM OA 24 h, then 10 μM Memantine 24 h
Method: as §1, with “DIV.” for “DIV. After 7 DIV, the cultures were maintained in physiological potassium containing 5% horse serum medium at 35° C. for at least 20 days before any treatment was applied. When the slices were treated, the reagents were applied into the culture medium.”
(§3) After different treatments some of the hippocampal slices were fixed in periodate/lysine/paraformaldehyde solution (Mclean, et al. 1974) at 33° C. for 5 h and then kept in 1% Triton-x-100 in PBS (pH 7.4) for 72 h at room temperature to improve the penetration of the antibodies. […] Peroxidase was detected using 0.05% diaminobenzidine (DAB) and H2O2 (0.01%) for 10 min.

[4] = test system: pNF-H/M; assay: Immunohistochemical staining of neurofilaments (pNF-H/M) in cultured hippocampal slices; type: cell-based, rat; conditions: 100 nM OA 24 h
Method: as §1, with “DIV.” for “DIV. After 7 DIV, the cultures were maintained in physiological potassium containing 5% horse serum medium at 35° C. for at least 20 days before any treatment was applied. When the slices were treated, the reagents were applied into the culture medium.”
as §3

[5] = test system: NF-H/M; assay: 125I-Western blots of phosphorylated NF-H/M in slice homogenates; type: cell-based, rat
Method: as §1, with “DIV.” for “DIV. After 7 DIV, the cultures were maintained in physiological potassium containing 5% horse serum medium at 35° C. for at least 20 days before any treatment was applied. When the slices were treated, the reagents were applied into the culture medium.”
The phosphorylation of tau at Ser 262 and the levels of MAP2 and phosphorylated NF-H/M were assayed by ^125I-Western blots. […] Both immuno-dot-blots and Western blots were developed with ^125I-radiolabeled secondary antibodies and radioimmunoreactivity was visualized and quantitated using a phosphorimager (Fujifilm BAS-1500) and TINA 2.0 software (Raytest Isotopenmessgeräte GmbH)

[6] = test system: PP-1; assay: PP-1 activity in extracts of treated hippocampal slice cultures; type: cell-based, rat; conditions: OA up to 1 μM, up to 48 h
Method: as §2

[7] = molecular target: T1, PP-2A (Rattus norvegicus, UniProt P63331); conditions: up to 5 μM OA, 3 h; cited from earlier work
T1 construct: the supernatant was used to assay activities of PP-2A and PP-1; from tissue; host or cells: organotypic culture of adult rat hippocampal slices; 16,000xg extract

[8] = test system: PP-1; conditions: up to 5 μM OA, 3 h; cited from earlier work
[9] = Memantine in OA-treated cultures
[10] = 100 nM OA 24 h, then 10 μM Memantine 24 h

T1 sequence (P63331 whole entry): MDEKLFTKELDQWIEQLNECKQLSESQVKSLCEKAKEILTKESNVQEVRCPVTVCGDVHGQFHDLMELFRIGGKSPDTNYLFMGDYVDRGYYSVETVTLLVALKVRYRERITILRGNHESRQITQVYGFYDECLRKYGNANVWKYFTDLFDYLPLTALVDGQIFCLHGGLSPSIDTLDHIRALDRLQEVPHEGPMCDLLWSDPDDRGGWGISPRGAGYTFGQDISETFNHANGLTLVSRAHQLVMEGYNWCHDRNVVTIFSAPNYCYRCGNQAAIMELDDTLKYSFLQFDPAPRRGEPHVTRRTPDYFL

With `CC12CC3CC(C)(C1)CC(N)(C3)C2` [Memantine, 1-amino-3,5-dimethyl adamantane] the “effect on cdk5 activity” value [1, 9] was “neither OA nor Memantine had any significant effect; also recorded: no significant effect”, the “restoration of OA-induced tau phosphorylation at Ser-214” value [2, 10] was “restored the tau phosphorylation at Ser-262 and Ser-214 to normal levels” and the “restoration of OA-induced tau phosphorylation at Ser-262” value [2, 10] was “restored the tau phosphorylation at Ser-262 and Ser-214 to normal levels; also recorded: practically completely restored”. For the same compound, the “restoration of phosphorylation of tau at Ser-262” value ([2]; 5 μM compound, OA-treated) was “restoration”, the “concentration of maximal effect on tau phosphorylation at Ser-262” value ([2]; 2-10 μM tested, 24 h) was 5 µM and the “lowest concentration inhibiting OA-induced tau phosphorylation at Ser-262” value ([2]; 2-10 μM tested, radioimmuno-dot-blot) was 2 µM. For the same compound, the “effect on OA-induced phosphorylation of tau at Ser-422” value [2, 9] was “no effect”, the “effect on level of total tau” value ([2]; antibody 134d, radioimmuno-dot-blots) was “no detectable effect” and the MAP2 immunostaining [3] was “beaded accumulation of MAP2 in dendrites was reduced and overall staining was increased; also recorded: a decrease in the degeneration and restoration of the staining of the neuropil; also recorded: partially reversed”. For the same compound, the “neurofilament (pNF-H/M, SMI 31) immunostaining” value ([4]; then 10 μM Memantine 24 h) was “reduced these changes; also recorded: partially reversed” and the “phosphorylated NF-H/M level” value ([5]; OA plus/then Memantine) was “reversed the OA-induced increase in phosphorylated NF-H/M; also recorded: reversal of phosphorylation and accumulation of NF-H/M subunits; also recorded: reversed the hyperphosphorylation of NF-H/M”.

In the case of `C=C1[C@@H](O)[C@@H]2O[C@]3(CC[C@H](/C=C/[C@@H](C)[C@@H]4CC(C)=C[C@@]5(O[C@H](C[C@@](C)(O)C(=O)O)CC[C@H]5O)O4)O3)CC[C@H]2O[C@@H]1[C@@H](O)C[C@H](C)[C@H]1O[C@@]2(CCCCO2)CC[C@H]1C` [OA, Okadaic Acid], the “change in cdk5 activity” value ([1]; OA-treated slice cultures) is reported as “no significant change; also recorded: neither OA nor Memantine had any significant effect; also recorded: no significant alteration”, the “inhibition of PP-1 activity” value [6] is reported as “no significant changes; also recorded: no detectable inhibition” and the “phosphorylation of tau at Ser-214” value ([2]; OA-treated cultures) is reported as “modest increase”. For the same compound, the “phosphorylation of tau at Ser-262” value ([2]; OA-treated cultures) was “marked increase; also recorded: dramatic increase”, the “phosphorylation of tau at Ser-422” value ([2]; OA-treated cultures) was “marked increase; also recorded: dramatic increase” and the “neurofilament (pNF-H/M, SMI 31) immunostaining” value ([4]; then medium 24 h) was “immunostaining was increased; also recorded: an increase in phosphorylation and accumulation of NF-H/M”. For the same compound, the “phosphorylated NF-H/M level” value ([5]; OA-treated cultures) was “increase in phosphorylated NF-H/M”, the “maximal inhibition of PP-2A” value [7] was about 70% and the “inhibition of PP-1” value [8] was “no detectable inhibition”.
